Measurements as given in US9828386B2 (priority 2013, dated 2017).
Where two headings read alike, the source gives them in different places.

What was measured:
Test in all cases: cells
Type in all cases: cell-based
A549 cell line = details: read-out: IC50 (μM) A549
Method: (§1) Test of compounds of embodiment of the present invention on inhibiting tumor cell activity
(§2) 3, cell lines: A549, BGC823, Hela cell line and normal human hepatocytes which are available from Wu Han boster Co., Ltd.;
(§3) A549, BGC823, Hela cell line and normal human hepatocytes in logarithmic growth phase are subjected to 1000 rpm centrifugation for 5 min, supernatant is then discarded, moderate medium is suspended, the cell concentration is adjusted to 3.5×10^4/well, the cells were seeded in 96-wells culture plate, and following experimental groups are set:
(§4) a negative control group; 35 test groups with same concentration (ie: groups of Compound (1) to Compound (35)); three control groups: groups of podophyllotoxin, 4′-demethylepipodophyllotoxin and etoposide.
(§5) Taking RPMI1640 containing 10% of calf serum as nutrient solution, 0.10 mL of cells per well is incubated under conditions of 37° C., 5% CO2 and saturated humidity for 24 h to nearly be covered, then the nutrient solution is discarded. […] 100 μl of DMSO is added to each well, then vibrated at 37° C. by shaker table for 30 min, then measuring absorbance (OD) at 492 nm, calculating MTT ratio=OD value of drug group/OD value of the negative control group.

BGC823 cell line = details: read-out: IC50 (μM) BGC823
Method: as §1, §2, §3, §4, §5

Hela cell line = details: read-out: IC50 (μM) Hela
Method: as §1, §2, §3, §4, §5

[1] = A549 cells, MTT, 48 h cultivation
[2] = BGC823 cells, MTT, 48 h cultivation
[3] = Hela cells, MTT, 48 h cultivation

| Molecule | IC50 (A549 cell line; [1]) [µM] | IC50 (BGC823 cell line; [2]) [µM] | IC50 (Hela cell line; [3]) [µM] | IC50 (A549 cell line; Homo sapiens, A549, 48 h) [µM] | IC50 (BGC823 cell line; Homo sapiens, BGC-823, 48 h) [µM] | IC50 (Hela cell line; Homo sapiens, HeLa, 48 h) [µM] | IC50 (Hela cell line; Homo sapiens, Hela cells, MTT, 48 h cultivation) [µM] |
| --- | --- | --- | --- | --- | --- | --- | --- |
| COc1cc(C2c3cc4c(cc3C(Sc3n[nH]c(N)n3)C3COC(=O)C23)OCO4)cc(OC)c1OC (stereo not drawn) [Compound 1, 4-S-(3-amino-1,2,4-triazole-5)-4-deoxy-podophyllotoxin] | 5.76 ± 0.34 | 0.83 ± 0.14 | 2.86 ± 0.34 |  |  |  |  |
| COc1cc(C2c3cc4c(cc3C(Sc3nc(C)cc(C)n3)C3COC(=O)C23)OCO4)cc(OC)c1OC (stereo not drawn) [Compound 11, 4-S-(4,6-dimethyl-pyrimidine-2)-4-deoxy-podophyllotoxin] | 3.31 ± 0.26 | 1.99 ± 0.34 | 0.11 ± 0.01 |  |  |  |  |
| COc1cc(C2c3cc4c(cc3C(Sc3nc(C)cc(C)n3)C3COC(=O)C23)OCO4)cc(OC)c1O (stereo not drawn) [Compound 28, 4-S-(4,6-dimethyl-pyrimidine-2)-4-deoxy-4′-demethylepipodophyllotoxin] | 1.27 ± 1.12 | 4.29 ± 0.83 | 5.26 ± 0.62 |  |  |  |  |
| COc1cc(C2c3cc4c(cc3C(Sc3nnc(C)s3)C3COC(=O)C23)OCO4)cc(OC)c1OC (stereo not drawn) [Compound 4, 4-S-(5-methyl-1,3,4-thiadiazol-2)-4-deoxy-podophyllotoxin] | 4.11 ± 0.93 | 4.01 ± 0.02 | 2.18 ± 0.07 |  |  |  |  |
| COc1cc(C2c3cc4c(cc3C(Sc3nnc(C)s3)C3COC(=O)C23)OCO4)cc(OC)c1O (stereo not drawn) [Compound 21, 4-S-(5-methyl-1,3,4-thiadiazol-2)-4-deoxy-4′-demethylepipodophyllotoxin] | 5.76 ± 0.18 | 0.83 ± 0.14 | 0.52 |  |  |  |  |
| COc1cc(C2c3cc4c(cc3C(Sc3ccccn3)C3COC(=O)C23)OCO4)cc(OC)c1O (stereo not drawn) [Compound 22, 4-S-(pyridin-2)-4-deoxy-4′-demethylepipodophyllotoxin] | 1.01 ± 0.38 | 0.27 ± 0.03 | 2.31 ± 0.31 |  |  |  |  |
| COc1ccc(S(=O)(=O)Nc2nnc(SC3c4cc5c(cc4C(c4cc(OC)c(O)c(OC)c4)C4C(=O)OCC34)OCO5)s2)cc1 (stereo not drawn) [Compound 35, 4-S-[2-N-(4-methoxy-benzenesulfonamide-)-1,3,4-thiadiazole-5-]-4-deoxy-4′-demethylepipodophyllotoxin] | 0.84 ± 0.62 | 2.23 ± 0.69 | 1.19 ± 0.57 |  |  |  |  |
| COc1cc(C2c3cc4c(cc3C(Sc3nnc(N)s3)C3COC(=O)C23)OCO4)cc(OC)c1OC (stereo not drawn) [Compound 3, 4-S-(2-amino-1,3,4-thiadiazole-5)-4-deoxy-podophyllotoxin] | 1.98 ± 2.54 | 0.71 ± 0.03 | 0.06 ± 0.01 |  |  |  |  |
| COc1cc(C2c3cc4c(cc3C(Sc3nc5ccccc5o3)C3COC(=O)C23)OCO4)cc(OC)c1O (stereo not drawn) [Compound 31, 4-S-(benzoxazole-2)-4-deoxy-4′-demethylepipodophyllotoxin] | 1.46 ± 0.89 | 1.36 ± 0.2 | 0.13 ± 0.01 |  |  |  |  |
| COc1cc(C2c3cc4c(cc3C(Sc3ccncc3)C3COC(=O)C23)OCO4)cc(OC)c1OC (stereo not drawn) [Compound 8, 4-S-(pyridin-4)-4-deoxy-podophyllotoxin] | 8.12 ± 0.09 | 1.52 ± 0.11 | 3.85 ± 0.14 |  |  |  |  |
| COc1cc(C2c3cc4c(cc3C(Sc3nccc(N)n3)C3COC(=O)C23)OCO4)cc(OC)c1OC (stereo not drawn) [Compound 10, 4-S-(4-amino-pyrimidine-2)-4-deoxy-podophyllotoxin] | 4.65 ± 0.26 | 1.32 ± 0.15 | 1.85 ± 0.12 |  |  |  |  |
| COc1cc(C2c3cc4c(cc3C(Sc3ncccn3)C3COC(=O)C23)OCO4)cc(OC)c1OC (stereo not drawn) [Compound 9, 4-S-(pyrimidine-2)-4-deoxy-podophyllotoxin] | 6.4 ± 0.38 | 0.71 ± 0.14 | 3.64 ± 0.46 |  |  |  |  |
| COc1cc(C2c3cc4c(cc3C(Sc3nc5ccccc5[nH]3)C3COC(=O)C23)OCO4)cc(OC)c1O (stereo not drawn) [Compound 30, 4-S-(benzimidazole-2)-4-deoxy-4′-demethylepipodophyllotoxin] | 1.24 ± 0.27 | 0.31 ± 0.16 | 0.51 ± 0.13 |  |  |  |  |
| COc1cc(C2c3cc4c(cc3C(Sc3n[nH]c(NS(=O)(=O)c5ccc(C)cc5)n3)C3COC(=O)C23)OCO4)cc(OC)c1O (stereo not drawn) [Compound 32, 4-S-[3-N-(4-methyl-benzenesulfonamide-)-1,2,4-triazole-5-]-4-deoxy-4′-demethylepipodophyllotoxin] | 1.67 ± 0.28 | 0.67 ± 0.22 | 0.53 ± 0.17 |  |  |  |  |
| COc1cc(C2c3cc4c(cc3C(O)C3COC(=O)C23)OCO4)cc(OC)c1O (stereo not shown) [4′-demethylepipodophyllotoxins, 4′-demethylepipodophyllotoxin, reference compound] | 52.9 ± 0.85 | 63.09 ± 0.49 | 49.32 ± 0.38 |  |  |  |  |
| 4-S-(5-methyl-1,2,4-triazole-3)-4-deoxy-4′-demethylepipodophyllotoxin [Compound 20] | 0.35 ± 0.37 | 0.21 ± 0.35 | 6.62 ± 0.35 |  |  |  |  |

| Molecule | IC50 (A549 cell line; [1]) [µM] | IC50 (BGC823 cell line; [2]) [µM] | IC50 (Hela cell line; [3]) [µM] | IC50 (A549 cell line; Homo sapiens, A549, 48 h) [µM] | IC50 (BGC823 cell line; Homo sapiens, BGC-823, 48 h) [µM] | IC50 (Hela cell line; Homo sapiens, HeLa, 48 h) [µM] | IC50 (Hela cell line; Homo sapiens, Hela cells, MTT, 48 h cultivation) [µM] |
| --- | --- | --- | --- | --- | --- | --- | --- |
| COc1cc([C@@H]2c3cc4c(cc3[C@H](O)[C@H]3COC(=O)[C@H]23)OCO4)cc(OC)c1OC [podophyllotoxin, reference compound] |  |  |  | 67.18 ± 0.24 | 75.81 ± 0.73 | 55.53 ± 0.24 |  |
| COc1cc(C2c3cc4c(cc3C(Sc3nnc(NS(=O)(=O)c5ccc(C)cc5)s3)C3COC(=O)C23)OCO4)cc(OC)c1O (stereo not drawn) [Compound 34, 4-S-[2-N-(4-methyl-benzenesulfonamide-)-1,3,4-thiadiazole-5-]-4-deoxy-4′-demethylepipodophyllotoxin] | 5.89 ± 0.74 | 0.85 ± 0.43 | 2.11 ± 0.34 |  |  |  |  |
| COc1ccc(S(=O)(=O)Nc2n[nH]c(SC3c4cc5c(cc4C(c4cc(OC)c(OC)c(OC)c4)C4C(=O)OCC34)OCO5)n2)cc1 (stereo not drawn) [Compound 16, 4-S-[3-N-(4-methoxy-benzenesulfonamide-)-1,2,4-triazole-5-]-4-deoxy-podophyllotoxin] | 1.24 ± 0.33 | 0.67 ± 0.05 | 1.56 ± 0.05 |  |  |  |  |
| COc1cc(C2c3cc4c(cc3C(Sc3nc5ccccc5o3)C3COC(=O)C23)OCO4)cc(OC)c1OC (stereo not drawn) [Compound 14, 4-S-(benzoxazole-2)-4-deoxy-podophyllotoxin] | 1.01 ± 0.14 | 0.21 ± 0.02 | 0.92 ± 0.08 |  |  |  |  |
| COc1cc(C2c3cc4c(cc3C(Sc3ncccc3C(=O)O)C3COC(=O)C23)OCO4)cc(OC)c1OC (stereo not drawn) [Compound 6, 4-S-(3-picolinate-2)-4-deoxy-podophyllotoxin] | 0.83 ± 0.25 | 2.65 ± 0.53 | 1.71 ± 0.07 |  |  |  |  |
| COc1cc(C2c3cc4c(cc3C(Sc3nc5ccccc5s3)C3COC(=O)C23)OCO4)cc(OC)c1OC (stereo not drawn) [Compound 12, 4-S-(benzothiazol-2)-4-deoxy-podophyllotoxin] | 3.85 ± 0.47 | 0.31 ± 0.34 | 0.6 ± 0.39 |  |  |  |  |
| COc1ccc(S(=O)(=O)Nc2nc(SC3c4cc5c(cc4C(c4cc(OC)c(O)c(OC)c4)C4C(=O)OCC34)OCO5)n[nH]2)cc1 (stereo not drawn) [Compound 33, 4-S-[3-N-(4-methoxy-benzenesulfonamide-)-1,2,4-triazole-5-]-4-deoxy-4′-demethylepipodophyllotoxin] | 1.37 ± 2.15 | 1.27 ± 0.53 | 1.56 ± 0.88 |  |  |  |  |
| COc1cc(C2c3cc4c(cc3C(Sc3cccc(C)n3)C3COC(=O)C23)OCO4)cc(OC)c1O (stereo not drawn) [Compound 24, 4-S-(6-methyl-pyridin-2)-4-deoxy-4′-demethylepipodophyllotoxin] | 1.11 ± 0.94 | 4.01 ± 0.02 | 7.18 ± 0.07 |  |  |  |  |
| COc1ccc(S(=O)(=O)Nc2nnc(SC3c4cc5c(cc4C(c4cc(OC)c(OC)c(OC)c4)C4C(=O)OCC34)OCO5)s2)cc1 (stereo not drawn) [Compound 18, 4-S-[2-N-(4-methoxy-benzenesulfonamide-)-1,3,4-thiadiazole-5-]-4-deoxy-podophyllotoxin] | 4.05 ± 0.15 | 1.27 ± 0.13 | 4.14 ± 0.47 |  |  |  |  |
| COc1cc(C2c3cc4c(cc3C(Sc3nc(N)n[nH]3)C3COC(=O)C23)OCO4)cc(OC)c1O (stereo not drawn) [Compound 19, 4-S-(3-amino-1,2,4-triazole-5)-4-deoxy-4′-demethylepipodophyllotoxin] | 0.93 ± 0.84 | 1.93 ± 1.67 | 1.51 ± 0.37 |  |  |  |  |
| COc1cc([C@@H]2c3cc4c(cc3[C@@H](O[C@@H]3O[C@@H]5CO[C@@H](C)O[C@H]5[C@H](O)[C@H]3O)[C@H]3COC(=O)[C@H]23)OCO4)cc(OC)c1O [etoposide, reference compound] |  |  |  |  |  |  | 13.2 ± 1.65 |
| COc1cc(C2c3cc4c(cc3C(Sc3ncccc3C(=O)O)C3COC(=O)C23)OCO4)cc(OC)c1O (stereo not drawn) [Compound 23, 4-S-(3-picolinate-2)-deoxy-4′-demethylepipodophyllotoxin] | 2.03 ± 0.45 | 6.68 ± 0.04 | 1.22 ± 0.25 |  |  |  |  |
| COc1cc(C2c3cc4c(cc3C(Sc3nc5ccccc5s3)C3COC(=O)C23)OCO4)cc(OC)c1O (stereo not drawn) [Compound 29, 4-S-(benzothiazol-2)-4-deoxy-4′-demethylepipodophyllotoxin] | 0.85 ± 0.93 | 1.37 ± 0.43 | 4.57 ± 0.16 |  |  |  |  |
| COc1cc(C2c3cc4c(cc3C(Sc3n[nH]c(C)n3)C3COC(=O)C23)OCO4)cc(OC)c1OC (stereo not drawn) [Compound 2, 4-S-(5-methyl-1,2,4-triazole-3)-4-deoxy-podophyllotoxin] | 1.01 ± 0.28 | 0.27 ± 0.03 | 0.15 ± 0.03 |  |  |  |  |
| COc1cc(C2c3cc4c(cc3C(Sc3nc5ccccc5[nH]3)C3COC(=O)C23)OCO4)cc(OC)c1OC (stereo not drawn) [Compound 13, 4-S-(benzimidazol-2)-4-deoxy-podophyllotoxin] | 6.76 ± 4.31 | 2.32 ± 0.01 | 3.1 ± 0.16 |  |  |  |  |
